The assay has as its target T1, PSMA-expressing LNCaP cells (Homo sapiens, UniProt Q04609).
T1 construct: PSMA-expressing LNCaP cells; endogenous in cells; host or cells: LNCaP
Kind of assay: Binding competition assay against 3H-PSMA-617 on LNCaP cells. Here is the method: Cells were incubated at 37° C. and 5% CO2 over night. […] After addition of the compounds in growth media the cells were swiveled slightly on a shaker mixing for 10 min followed by incubation for 2 h at 37° C., 5% C02. Following the incubation time the supernatant was removed by pipetting and cells were washed twice with ice cold PBS (total of 800 μl). Cells were lysed in 500 μl of 0.3M NaOH (PanReac AppliChem ITW Reagents) by vigorous shaking for 15 min and the cell lysated pipetted into scintillator tubes (S207-[…]® Scintillation Vials 6.5 ml #S207, Simport). In the following the wells were washed with 500 μl PBS and the washing PBS added to the corresponding samples in the sincitallator tubes. To each sample in the scintillator tubes 4 mL of Ultima Gold liquid scintillation cocktail (Sigma-Aldrich #L8286) was added and the samples let stand for at least 30 min. Thereafter radioactivity was counted in a Tri-Carb Liquid Scinzillation Analyzer (Perkin Elmer).

The mark [1] stands for this setting: LNCaP cells, 10 nM 3H-PSMA-617, competing non-radiolabeled compound 10 nM, 2 h at 37° C., triplicates.
Setting [2] is: LNCaP cells, 10 nM 3H-PSMA-617, competing non-radiolabeled compound 100 nM, 2 h at 37° C., triplicates.

T1 sequence (Q04609 whole entry): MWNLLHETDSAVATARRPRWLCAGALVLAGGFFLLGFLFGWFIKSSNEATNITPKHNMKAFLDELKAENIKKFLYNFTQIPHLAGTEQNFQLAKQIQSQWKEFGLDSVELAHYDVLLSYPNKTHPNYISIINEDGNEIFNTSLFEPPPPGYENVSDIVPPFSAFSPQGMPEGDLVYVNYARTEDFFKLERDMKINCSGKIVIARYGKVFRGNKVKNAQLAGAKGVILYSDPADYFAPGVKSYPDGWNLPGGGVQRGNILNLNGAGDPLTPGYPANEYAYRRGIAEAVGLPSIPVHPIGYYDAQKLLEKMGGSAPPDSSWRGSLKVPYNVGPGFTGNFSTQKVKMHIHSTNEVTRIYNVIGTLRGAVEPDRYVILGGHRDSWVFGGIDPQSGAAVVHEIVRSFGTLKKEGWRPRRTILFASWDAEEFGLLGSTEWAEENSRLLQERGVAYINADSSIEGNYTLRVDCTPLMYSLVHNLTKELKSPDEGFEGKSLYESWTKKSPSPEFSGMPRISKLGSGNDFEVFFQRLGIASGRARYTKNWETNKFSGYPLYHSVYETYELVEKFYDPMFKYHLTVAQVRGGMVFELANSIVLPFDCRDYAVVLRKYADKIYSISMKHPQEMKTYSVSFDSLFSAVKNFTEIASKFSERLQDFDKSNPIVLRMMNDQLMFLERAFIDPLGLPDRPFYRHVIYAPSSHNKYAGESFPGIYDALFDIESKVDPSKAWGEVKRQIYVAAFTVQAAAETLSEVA

Consider `NC[C@H]1CC[C@H](C(=O)N[C@@H](Cc2cc(F)c(F)c(F)c2)C(=O)NCCCC[C@H](NC(=O)N[C@@H](CCC(=O)O)C(=O)O)C(=O)O)CC1` [Example 6-A, N^6—{N-[(1r,4S)-4-(aminomethyl)cyclohexane-1-carbonyl]-3,4,5-trifluoro-L-phenylalanyl}-N^2-{[(1S)-1,3-dicarboxypropyl]carbamoyl}-L-lysine], for which, under setting [1], the remaining activity at 0.01 µM was determined as 98%. For the same compound, the remaining activity at 0.1 µM under setting [2] was 86%.

Consider `NC[C@H]1CC[C@H](C(=O)N[C@@H](Cc2ccc(F)cc2)C(=O)NCCCC[C@H](NC(=O)N[C@@H](CCC(=O)O)C(=O)O)C(=O)O)CC1` [Example 7-A, N^6—{N-[(1r,4S)-4-(aminomethyl)cyclohexane-1-carbonyl]-4-fluoro-L-phenylalanyl}-N^2-{[(1S)-1,3-dicarboxypropyl]carbamoyl}-L-lysine], for which the remaining activity at 0.01 µM under setting [1] was determined as 106%. For the same compound, under setting [2], the remaining activity at 0.1 µM is 93%.

`CC(C)(C)c1ccc(C[C@H](NC(=O)[C@H]2CC[C@H](CN)CC2)C(=O)NCCCC[C@H](NC(=O)N[C@@H](CCC(=O)O)C(=O)O)C(=O)O)cc1` [Example 8-A, N^6—{N-[(1r,4S)-4-(aminomethyl)cyclohexane-1-carbonyl]-4-tert-butyl-L-phenylalanyl}-N^2-{[(1S)-1,3-dicarboxypropyl]carbamoyl}-L-lysine]: the remaining activity at 0.01 µM under setting [1] was found to be 92%. Moreover, the remaining activity at 0.1 µM under setting [2] stood at 111%.

For the compound `NC[C@H]1CC[C@H](C(=O)N[C@@H](CCCCNC(=O)c2cccnc2)C(=O)NCCCC[C@H](NC(=O)N[C@@H](CCC(=O)O)C(=O)O)C(=O)O)CC1` [Example 9-A, N^6—{N^2-[(1r,4S)-4-(aminomethyl)cyclohexane-1-carbonyl]-N^6-(pyridine-3-carbonyl)-L-lysyl}-N^2-{[(1S)-1,3-dicarboxypropyl]carbamoyl}-L-lysine], the remaining activity at 0.01 µM under setting [1] turned out to be 147%. For the same compound, the remaining activity at 0.1 µM under setting [2] is 114%.

On to `NC[C@H]1CC[C@H](C(=O)N[C@@H](Cc2cccc(F)c2)C(=O)NCCCC[C@H](NC(=O)N[C@@H](CCC(=O)O)C(=O)O)C(=O)O)CC1` [Example 10-A, N^6—{N-[(1r,4S)-4-(aminomethyl)cyclohexane-1-carbonyl]-3-fluoro-L-phenylalanyl}-N^2-{[(1S)-1,3-dicarboxypropyl]carbamoyl}-L-lysine], for which, under setting [1], the remaining activity at 0.01 µM is 91%. Also, under setting [2], the remaining activity at 0.1 µM stood at 60%.

For `CC(=O)NCCCC[C@H](NC(=O)[C@H]1CC[C@H](CN)CC1)C(=O)NCCCC[C@H](NC(=O)N[C@@H](CCC(=O)O)C(=O)O)C(=O)O` [Example 11-A, N^6—{N^6-acetyl-N^2-[(1r,4S)-4-(aminomethyl)cyclohexane-1-carbonyl]-L-lysyl}-N^2-{[(1S)-1,3-dicarboxypropyl]carbamoyl}-L-lysine], the remaining activity at 0.01 µM under setting [1] was 117%. In addition, the remaining activity at 0.1 µM under setting [2] was found to be 146%.

On to `NC[C@H]1CC[C@H](C(=O)N[C@@H](Cc2ccc(-c3ccccc3)cc2)C(=O)NCCCC[C@H](NC(=O)N[C@@H](CCC(=O)O)C(=O)O)C(=O)O)CC1` [Example 11a-A, (3S,10S,14S)-1-[(1r,4S)-4-(aminomethyl)cyclohexyl]-3-[([1,1′-biphenyl]-4-yl)methyl]-1,4,12-trioxo-2,5,11,13-tetraazahexadecane-10,14,16-tricarboxylic acid], for which the remaining activity at 0.01 µM under setting [1] came out at 110%. In addition, under setting [2], the remaining activity at 0.1 µM was determined as 103%.

On to `Cc1ccccc1C[C@H](NC(=O)[C@H]1CC[C@H](CN)CC1)C(=O)NCCCC[C@H](NC(=O)N[C@@H](CCC(=O)O)C(=O)O)C(=O)O` [Example 12-A, N^6—{N-[(1r,4S)-4-(aminomethyl)cyclohexane-1-carbonyl]-2-methyl-L-phenylalanyl}-N^2-{[(1S)-1,3-dicarboxypropyl]carbamoyl}-L-lysine], for which the remaining activity at 0.01 µM under setting [1] was found to be 158%. The remaining activity at 0.1 µM under setting [2] was determined as 128%.

On to `Cc1ccc(C[C@H](NC(=O)[C@H]2CC[C@H](CN)CC2)C(=O)NCCCC[C@H](NC(=O)N[C@@H](CCC(=O)O)C(=O)O)C(=O)O)cc1` [Example 13-A, N^6—{N-[(1r,4S)-4-(aminomethyl)cyclohexane-1-carbonyl]-4-methyl-L-phenylalanyl}-N^2-{[(1S)-1,3-dicarboxypropyl]carbamoyl}-L-lysine], for which, under setting [1], the remaining activity at 0.01 µM came to 108%. Further, the remaining activity at 0.1 µM under setting [2] was 124%.

As for `NC[C@H]1CC[C@H](C(=O)N[C@@H](Cc2ccc3ccccc3c2Br)C(=O)NCCCC[C@H](NC(=O)N[C@@H](CCC(=O)O)C(=O)O)C(=O)O)CC1` [Example 14-A, (3S,10S,14S)-1-[(1r,4S)-4-(aminomethyl)cyclohexyl]-3-[(1-bromonaphthalen-2-yl)methyl]-1,4,12-trioxo-2,5,11,13-tetraazahexadecane-10,14,16-tricarboxylic acid], the remaining activity at 0.01 µM under setting [1] was 187%. Further, under setting [2], the remaining activity at 0.1 µM was 129%.

For `NC[C@H]1CC[C@H](C(=O)N[C@@H](Cc2ccc(O)cc2)C(=O)NCCCC[C@H](NC(=O)N[C@@H](CCC(=O)O)C(=O)O)C(=O)O)CC1` [Example 15-A, N^6—{N-[(1r,4S)-4-(aminomethyl)cyclohexane-1-carbonyl]-L-tyrosyl}-N^2-{[(1S)-1,3-dicarboxypropyl]carbamoyl}-L-lysine], the remaining activity at 0.01 µM under setting [1] is 133%. Moreover, the remaining activity at 0.1 µM under setting [2] was 111%.

As for `NC[C@H]1CC[C@H](C(=O)N[C@@H](Cc2cccc(S(F)(F)(F)(F)F)c2)C(=O)NCCCC[C@H](NC(=O)N[C@@H](CCC(=O)O)C(=O)O)C(=O)O)CC1` [Example 16-A, N^6—{N-[(1r,4S)-4-(aminomethyl)cyclohexane-1-carbonyl]-3-(pentafluoro-lambda^6-sulfanyl)-L-phenylalanyl}-N^2-{[(1S)-1,3-dicarboxypropyl]carbamoyl}-L-lysine], under setting [1], the remaining activity at 0.01 µM was determined as 79%. Under setting [2], the remaining activity at 0.1 µM was 90%.

Consider `NC[C@H]1CC[C@H](C(=O)N[C@@H](Cc2ccc3ccccc3n2)C(=O)NCCCC[C@H](NC(=O)N[C@@H](CCC(=O)O)C(=O)O)C(=O)O)CC1` [Example 17-A, N^6—{N-[(1r,4S)-4-(aminomethyl)cyclohexane-1-carbonyl]-3-(quinolin-2-yl)-L-alanyl}-N^2-{[(1S)-1,3-dicarboxypropyl]carbamoyl}-L-lysine], for which the remaining activity at 0.01 µM under setting [1] came out at 84%. Under setting [2], the remaining activity at 0.1 µM turned out to be 56%.

Turning to `O=C(O)CC[C@H](NC(=O)N[C@@H](CCCCNC(=O)[C@H](Cc1ccc2ccccc2n1)NC(=O)[C@H]1CC[C@H](CNC(=O)CN2CCN(CC(=O)O)CCN(CC(=O)O)CCN(CC(=O)O)CC2)CC1)C(=O)O)C(=O)O` [Example 17-B, N^6-{3-(quinolin-2-yl)-N-[(1r,4S)-4-({2-[4,7,10-tris(carboxymethyl)-1,4,7,10-tetraazacyclododecan-1-yl]acetamido}methyl)cyclohexane-1-carbonyl]-L-alanyl}-N^2-{[(1S)-1,3-dicarboxypropyl]carbamoyl}-L-lysine], the remaining activity at 0.01 µM under setting [1] was 55%. The remaining activity at 0.1 µM under setting [2] was 12%. Under “comparison between examples”, the “competition against 3H-PSMA-617 on PSMA-expressing LNCaP cells (in words)” value is reported as “best competition amongst all quinoline isomer examples”.

Regarding `O=C(O)CC[C@H](NC(=O)N[C@@H](CCCCNC(=O)[C@H](Cc1ccc2ccccc2n1)NC(=O)C1CCC(CNC(=O)C[N+]23CC[N+]45CCN6CC[N+]7(CC2)CC(=O)[OH+][Th]347([O]C(=O)C6)[O]C(=O)C5)CC1)C(=O)O)C(=O)O` (stereo partly shown) [Example 17-B-232Th], the “% remaining 3H-PSMA-617 @ 10 nM (mean)” value under setting [1] turned out to be 46%. The “% remaining 3H-PSMA-617 @ 100 nM (mean)” value under setting [2] is given as 10%.

The values above are taken from US20230072421A1, “TARGETED RADIOPHARMACEUTICALS FOR THE DIAGNOSIS AND TREATMENT OF PROSTATE CANCER” (Bayer AS, priority 2019, published 2023).
